Results reported in article PMC6109769, “Calmodulin Enhances Cryptochrome Binding to INAD in Drosophila Photoreceptors” (Frontiers in Molecular Neuroscience, 2018).

Columns and labels:
CaM [1] = biological target: T1, CaM (Xenopus laevis, UniProt P0DP33); assay: ITC global fit of single titrations and competition experiment (Scheme 5), 5 mM CaCl2; assay type: binding; settings: calculated from global fit Scheme 5
T1 construct: (His)6 (N); made in house; host or cells: Escherichia coli BL21
Experimental: (§1) Peptide titrations were performed at 25°C using a high-sensitivity VP-isothermal titration calorimetry (ITC) microcalorimeter (MicroCal LLC, Northampton, MA, USA). The reference cell was filled with deionized water. Protein and peptide solutions were prepared by diluting concentrated stock solutions in the reaction buffer (50 mM TrisHCl, pH 7.5, 150 mM NaCl, in the absence or in the presence of 5 mM CaCl2). Apo-protein and peptide solutions were devoid of Ca^2+ ions, as determined by inductively coupled plasma emission spectroscopy, as previously described (Merloni et al., [2014]). […]
(§2) Integrated heat data obtained for each titration were fitted using a nonlinear least-squares minimization algorithm to a theoretical titration curve, using AFFINImeter^2, using both the independent sites and the stoichiometric equilibria approach. ΔH (reaction enthalpy change, cal mol^−1) and Ka (binding constant, M^−1) were the thermodynamic fitting parameters. […] The reaction entropy was calculated using the relationships ΔG = −RTlnKa (R = 1.9872 cal mol^−1 K^−1, T = 298 K) and ΔG = ΔH − TΔS. […] The reliability of the obtained fits was evaluated using the Goodness of Fit (GoF) parameter.
The reaction was monitored using ITC. […]

CaM-dCRY complex = assay type: binding, Xenopus laevis; settings: ITC, 5 mM CaCl2; INAD peptide 800 μM over CaM 40 μM + dCRY peptide 40 μM (1:1)
Experimental: Peptide titrations were performed at 25°C using a high-sensitivity VP-isothermal titration calorimetry (ITC) microcalorimeter (MicroCal LLC, Northampton, MA, USA). The reference cell was filled with deionized water. Protein and peptide solutions were prepared by diluting concentrated stock solutions in the reaction buffer (50 mM TrisHCl, pH 7.5, 150 mM NaCl, in the absence or in the presence of 5 mM CaCl2). Apo-protein and peptide solutions were devoid of Ca^2+ ions, as determined by inductively coupled plasma emission spectroscopy, as previously described (Merloni et al., [2014]). Each experiment started with a small injection of 1–2 μL, which was discarded from the analysis of the integrated data, in order to avoid artifacts due to the diffusion through the injection port occurring during the long equilibration period, locally affecting the protein concentration near the syringe needle tip. Care was taken to start the first addition after baseline stability had been achieved. […] To allow the system to reach equilibrium, a spacing of 300 s was applied between each ligand injection.
The reaction was monitored using ITC. […] A fit of the integrated heat data, however, is quite complex, as the binding curve represents the sum of the contributions of the multiple binding isotherms deriving from the different equilibria involved. […]

CaM [2] = biological target: T1, CaM; assay: ITC titration of peptide into Ca2+-loaded CaM (5 mM CaCl2), single-curve fits; assay type: binding; settings: calculated, T = 298 K
Experimental: as §1, §2

ΔSINAD, global fit (CaM [1]): +4.42 cal mol^−1 K^−1 | ΔS (INAD) (CaM [2]): −11.3 cal mol^−1 K^−1
SMILES: CC[C@H](C)[C@H](NC(=O)[C@H](CCCCN)NC(=O)[C@H](C)NC(=O)[C@H](CCSC)NC(=O)[C@@H](NC(=O)[C@H](Cc1ccc(O)cc1)NC(=O)CNC(=O)[C@H](Cc1ccccc1)NC(C)=O)[C@@H](C)O)C(=O)N[C@@H](CC(N)=O)C(=O)N[C@@H](CCCCN)C(=O)N[C@@H](CCCNC(=N)N)C(=O)N[C@@H](Cc1ccc(O)cc1)C(=O)N[C@@H](CC(N)=O)C(=O)N[C@@H](CCSC)C(N)=O [INAD230–243]
heat of reaction on titration of INAD over CaM preincubated with dCRY (CaM-dCRY complex): absence of significant heat of reaction
